The values that follow come from patent US7915270B2, “Oxazole ketones as modulators of fatty acid amide hydrolase” (The Scripps Research Institute, priority 2006, dated 2011).

A short description of series [1]: Solubility determination in water. It counts as physicochemical. As to conditions: thermodynamic from solid; in water at 5, 1 and 0.1 mg/mL; pH of resulting solutions 7-8.5. How it is done:
Physical Chemical Properties
Solubility determinations were made by mixing the test compound in water at 5 mg/mL, 1 mg/mL, and 0.1 mg/mL concentrations. The pH of the resulting solutions was 7-8.5.

In a further series the target is T1, Rat FAAH (Rattus norvegicus, UniProt P97612).
T1 construct: expressed in transfected cells
T1 sequence (P97612 1-579): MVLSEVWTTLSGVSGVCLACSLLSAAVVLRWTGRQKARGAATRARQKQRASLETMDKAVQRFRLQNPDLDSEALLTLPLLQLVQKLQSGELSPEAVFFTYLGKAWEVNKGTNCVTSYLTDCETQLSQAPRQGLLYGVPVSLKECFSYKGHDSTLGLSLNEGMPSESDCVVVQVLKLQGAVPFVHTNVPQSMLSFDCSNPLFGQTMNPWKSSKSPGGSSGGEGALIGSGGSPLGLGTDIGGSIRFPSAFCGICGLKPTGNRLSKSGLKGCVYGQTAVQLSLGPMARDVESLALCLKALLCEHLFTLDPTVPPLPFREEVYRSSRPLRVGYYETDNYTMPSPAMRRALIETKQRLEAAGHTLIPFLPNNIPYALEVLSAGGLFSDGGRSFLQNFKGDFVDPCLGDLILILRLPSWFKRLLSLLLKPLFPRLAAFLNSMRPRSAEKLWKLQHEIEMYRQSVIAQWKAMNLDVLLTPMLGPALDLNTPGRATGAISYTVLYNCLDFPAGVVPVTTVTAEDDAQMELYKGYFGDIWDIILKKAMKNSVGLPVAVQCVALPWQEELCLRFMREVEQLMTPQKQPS
As to the kind of experiment: Assay Method 2: FAAH assay, 3H-anandamide hydrolysis in cell homogenate (SK-N-MC cells transfected with rat FAAH). As to conditions: 3H-AEA 80 nM, rt 1 h, pH 9. It counts as biochemical.

Series [2] in a line: Pharmacokinetic testing, intravenous bolus in rats. As to conditions: rat, plasma, 2 mg/kg, male Sprague Dawley rats, 1 mg/mL in 2 mL/kg. It counts as in vivo. Here is the method: For each test compound, two male Sprague Dawley Rats (Charles River Laboratories; approx. 300 g body weight) were used. Animals were individually housed, provided food and water ad libitum, and were maintained on a 12 h light and dark cycle. Animals received from the vendor were surgically cannulated by the vendor with right jugular vein and left carotid artery catheters. Animals were acclimatized for at least 5 days after receipt from the vendor prior to investigations.
Animals received a bolus intravenous dose of the test compound at a dose of 1 mg/mL in a volume of 2 mL/kg via the right jugular vein catheter. The intravenous dosing solution was prepared in 55% pharmasolve, 20% cremophor, and […] physiological saline, or 100% saline adjusted to pH 8.0.
Following intravenous administration, blood was collected (sampled 0.35 mL per time point from the left carotid artery catheter) at 0.083, 0.25, 0.5, 1, 2, 4, and 6 h post-dose. Blood was collected into tubes containing EDTA and stored at 4° C. for not more than 2 h. The samples were centrifuged at 10,000 rpm in a micro-centrifuge for 5 min to obtain a plasma fraction. The plasma was stored at between −20 and −80° C. until processed for analysis. These samples were analyzed by LC-MS/MS to determine the plasma level of the compound.
Plasma level vs. time plots were created and WinNonlin (Pharsight Corp.) was used to analyze the data. A non-compartmental pharmacokinetic model was used to determine the pharmacokinetic parameters, including clearance, volume of distribution (Vd), and half-life (t1/2).

Bounds are passed on as bounds.

Usually solubility stands for the concentration that dissolves in the medium under given conditions. Broadly, the IC50 is the point on the concentration scale where inhibition reaches its midpoint. As usually defined, the Vd is the apparent volume that relates the amount in the body to the concentration in plasma or blood. A lower Vd goes with little distribution into tissue. As usually defined, the clearance is the rate of elimination divided by the concentration. Low readings indicate inefficient removal, high ones efficient removal. Broadly, the half-life is how long it takes for the measured level to halve. Low values mean fast loss, high ones slow loss. `O=C(O)c1cccc(-c2cnc(C(=O)CCCCCCc3ccccc3)o2)n1` [Example 37, 6-(2-(7-Phenylheptanoyl)oxazol-5-yl)picolinic acid] gave a solubility in series [1] greater than 5000 µg/mL. The same compound displayed an IC50 against Rat FAAH of 11 nM. In series [2], this compound gave a Vd of 0.86 L/kg, a clearance of 7.67 mL/min/kg and a half-life of 74.4 min.
`O=C(O)c1ccc(-c2cnc(C(=O)CCCCCCc3ccccc3)o2)nc1` [Example 38, 6-(2-(7-Phenylheptanoyl)oxazol-5-yl)nicotinic acid]: the solubility in series [1] was greater than 5000 µg/mL. This compound also registered a half-maximal inhibitory concentration (IC50) against Rat FAAH of 2 nM. In series [2], this compound showed a Vd of 1.4 L/kg, a clearance of 112 mL/min/kg and a half-life of 9 min.
